Laboratory results: patent publication US11045465B2, “Methods and compositions to prevent addiction” (FLORIDA STATE UNIVERSITY RESEARCH FOUNDATION, INC., priority 2009, dated 2021)
Entries after “also recorded” stand apart in the source; their conditions may differ.

Experiments:
KOPR = conditions: 2.5 mg/kg; s.c. (Xia et al., 2007); cited from earlier work
μ opioid receptor (MOPR) [1] = biological target: T1, μ opioid receptor (MOPR) (Mus musculus, UniProt P42866); assay: DAMGO concentration-dependent [35S]GTPγS binding in caudate-putamen and nucleus accumbens membrane preparations; assay type: biochemical, mice
T1 construct: The caudate-putamen and nucleus accumbens were microdissected and the tissue was homogenized; from tissue; host or cells: mouse brain: caudate-putamen and nucleus accumbens membrane preparations
Procedure: (§1) MOPR activity was assayed by using [^35S]GTPγS binding on membrane preparations using a modification of the previously described method^23. The mice were sacrificed by cervical dislocation and the brain was dissected rapidly. The caudate-putamen and nucleus accumbens were microdissected and the tissue was homogenized using teflon pistol in Eppendorf tubes (10 strokes) in 300 μl of homogenization buffer containing 25 mM Tris/pH7.4, 5 mM EDTA and 0.1 mM PMSF and kept on ice. Homogenate was diluted to 2.5 ml using the homogenization buffer and centrifuged at ˜350,000 g for 30 min. After washing 3 times with 50 mM Tris-HCl/pH7.4, the pellets were re-suspended in 50 mM Tris-HCl/pH7.4 containing 0.32 M sucrose, passed through a 26.5 G needle for 3 times, frozen in dry ice/ethanol and stored in −80° C. until use. […] Bound and free [^35S]GTPγS were separated by filtration with GF/B filters under reduced pressure. Radioactivity on filters was determined by liquid scintillation counting. Nonspecific binding was subtracted from total stimulated and basal binding. […] MOPR activity was reported as % of baseline (unstimulated) activity: [Disintegrations per minute (DPM) with agonist stimulated binding−DPM of nonspecific binding)/(DPM basal (without agonist)−DPM nonspecific)×100. Protein content of membranes was determined by the BCA method of^24 with bovine serum albumin as the standard.

[2] = tested on: frontal cortical dopamine levels; conditions: cited from earlier work
mice = assay: Locomotor activity measured during the CPP assay; assay type: in vivo; conditions: for MPH-induced increase in locomotor activity: naltrexone 1, 5 or 10 mg/kg 30 min prior to MPH 7.5 mg/kg
Procedure: In control groups, saline or naltrexone at each of the doses was administered alone (without MPH).

rats = conditions: 0.5 mg/kg MPH, rats (Paine et al., 2007); cited from earlier work
healthy human volunteers = conditions: studies that evaluated detection/likeability (Kollins et al., 2001); cited from earlier work
[3] = cited from earlier work
Adult C57BL/6 mice = assay: Conditioned place preference (CPP); assay type: in vivo; conditions: for MPH-induced place preference / CPP score compared to the saline group: naltrexone 10 mg/kg (highest dose) prior to MPH 7.5 mg/kg; for place preference (CPP): naltrexone 1 or 10 mg/kg alone; for effect on high dose MPH-induced CPP (rewarding effects): naltrexone prior to MPH, naltrexone dose not stated
Procedure: Photobeams wired to a computer can record animal location (time spent in the chamber). The central chamber has a smooth floor with gray color. Each preference chamber is either white with a mesh floor or black with a bar floor. The CPP procedure included three phases. (1) The pre-conditioning phase was performed on day 1 (two sessions daily, AM and PM). In each preconditioning session, mice were initially placed in the central gray chamber for 2 min and then allowed free access to the white and black chambers for 20 min. The time spent in each chamber was recorded. […] (2) The conditioning phase was carried out on each of days 2 to 6 [two sessions daily, AM and PM one each for vehicle-paired (saline as vehicle) and drug-paired (cocaine or MPH as drugs) sessions]. In the vehicle-paired session mice were injected with saline (i.p.) and placed in the central gray chamber for 2 min (to isolate injection effect to the central chamber) and then confined to the vehicle-paired chamber for 30 min. In the drug-paired session, the mice were given the drug in the central chamber, retained there for 2 min and then confined for 30 min in the drug-paired chamber. […] The time spent in each chamber was recorded. The difference between time spent in the drug-paired chamber during the test phase and pre-conditioning phases was calculated as the CPP score.

μ opioid receptor (MOPR) [4] = biological target: T1, μ opioid receptor (MOPR); assay: DAMGO-stimulated [35S]GTPγS binding (MOPR activity) in caudate-putamen and nucleus accumbens membranes of drug-treated mice from the CPP assay; assay type: in vivo; conditions: for MOPR activity (DAMGO-stimulated [35S]GTPγS binding) compared to saline: caudate-putamen and nucleus accumbens, 10 μM DAMGO
Procedure: as §1

[5] = 0.75 mg/kg dose (Balcioglu et al., 2009)
[6] = MPH 7.5 mg/kg vs cocaine 10 mg/kg
[7] = naltrexone 1, 5 or 10 mg/kg prior to MPH 7.5 mg/kg

T1 sequence (P42866 whole entry): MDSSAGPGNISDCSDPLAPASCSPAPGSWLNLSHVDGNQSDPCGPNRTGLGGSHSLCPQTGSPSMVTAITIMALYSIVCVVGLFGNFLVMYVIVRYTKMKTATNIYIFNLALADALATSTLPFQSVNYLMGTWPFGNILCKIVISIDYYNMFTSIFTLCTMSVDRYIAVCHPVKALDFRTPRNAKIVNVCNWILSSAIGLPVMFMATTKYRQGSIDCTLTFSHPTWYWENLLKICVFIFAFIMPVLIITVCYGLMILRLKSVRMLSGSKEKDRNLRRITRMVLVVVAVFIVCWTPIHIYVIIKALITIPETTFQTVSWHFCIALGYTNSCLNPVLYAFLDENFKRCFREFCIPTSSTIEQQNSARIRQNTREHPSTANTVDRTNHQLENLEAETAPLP

SMILES: CC(N)Cc1ccccc1 (stereo not drawn) [Amphetamine]
- KOPR signaling in the nucleus accumbens (KOPR): modulates KOPR signaling in the nucleus accumbens in a region-specific manner

SMILES: C[C@@H](NC(=O)[C@@H](N)Cc1ccc(O)cc1)C(=O)NCC(=O)N(C)[C@@H](Cc1ccccc1)C(=O)NCCO [DAMGO]
- concentration at which maximal [35S]GTPγS binding was reached (μ opioid receptor (MOPR) [1]): 10 µM
- maximal [35S]GTPγS binding (μ opioid receptor (MOPR) [1]; at 10 μM DAMGO): 1.75 fold of the basal level

SMILES: COC(=O)C(c1ccccc1)C1CCCCN1 (stereo not drawn) [MPH, Methylphenidate]
- time after MPH administration at which increases in frontal cortical dopamine levels occur [2, 5]: ~60 min
- effect on neurotransmitter levels ([2]; low doses of MPH (literature)): selectively affect neurotransmitter levels in the frontal cortex
- locomotor activity compared to saline (mice; MPH 0.75 mg/kg): no significant effect
- locomotor activity compared to saline (mice; MPH 7.5 mg/kg): significantly increased locomotor activity; also recorded: increased locomotor activity significantly
- accuracy in 5-CSRT assay (rats): increased accuracy
- studies reporting subjective responses to oral MPH (healthy human volunteers): 18 (72%) of 25 studies
- serum and brain concentrations of d-methylphenidate ([3]; 0.75 mg/kg MPH, adult mice (ref. 19)): equivalent to its serum and brain (estimated) concentrations in ADHD patients taking therapeutic doses of MPH
- clinically relevant serum levels of D-MPH [3, 5]: 6 to 10 ng/mL
- time brain levels remain high [3, 5]: ~30 min
- time to reach clinically relevant serum levels of D-MPH [3, 5]: ≤ 15 min
- place preference: time spent in the drug-paired chamber, test vs pre-conditioning sessions (Adult C57BL/6 mice; MPH 0.75 mg/kg (low, therapeutic dose) i.p.): did not; also recorded: neither induce place preference; also recorded: do not; also recorded: no statistically significant difference
- place preference: time spent in the drug-paired chamber, test vs pre-conditioning sessions (Adult C57BL/6 mice; MPH 7.5 mg/kg (high, supra-therapeutic dose) i.p., alone): showed significant place preference; also recorded: induced CPP; also recorded: produce CPP; also recorded: induce place preference; also recorded: produce place preference; also recorded: spent significantly longer period of time in the drug-paired chamber; also recorded: produced significant increase
- CPP score compared to the saline and low dose MPH groups (Adult C57BL/6 mice; MPH 7.5 mg/kg i.p.): significantly higher CPP scores
- CPP score, high dose MPH group vs cocaine group (Adult C57BL/6 mice; [6]): no statistically significant difference
- MOPR activity (μ opioid receptor (MOPR) [4]; 7.5 mg/kg MPH to 25-day old mice for 5 days, expected): MOPR upregulation
- MOPR activity (DAMGO-stimulated [35S]GTPγS binding) compared to saline (μ opioid receptor (MOPR) [4]; MPH 0.75 mg/kg i.p.): did not produce significant enhancements
- MOPR activity (DAMGO-stimulated [35S]GTPγS binding) compared to saline (μ opioid receptor (MOPR) [4]; MPH 7.5 mg/kg i.p.): significantly greater; also recorded: activate MOPR; also recorded: upregulation of striatal MOPR; also recorded: upregulate MOPR activity; also recorded: significantly higher MOPR activity
- MOPR activity, high dose MPH group vs cocaine group (μ opioid receptor (MOPR) [4]; [6]): no significant difference

SMILES: O=C1CC[C@@]2(O)[C@H]3Cc4ccc(O)c5c4[C@@]2(CCN3CC2CC2)[C@H]1O5 [naltrexone]
- MPH-induced increase in locomotor activity (mice): not affected
- MPH-induced increase in locomotor activity (mice; listed as Naltrexone): did not block the MPH-induced increases in locomotor activity
- locomotor activity (mice; naltrexone 1, 5 or 10 mg/kg alone): did not affect locomotor activity
- naltrexone dose needed to block reinforcing properties of MPH (Adult C57BL/6 mice; 7.5 mg/kg MPH, preliminary findings): at least 5 mg/kg
- MPH-induced place preference / CPP score compared to the saline group (Adult C57BL/6 mice): not significantly different from that for the saline group
- MPH-induced place preference / CPP score compared to the saline group (Adult C57BL/6 mice; listed as Naltrexone): blocking it completely
- time spent in the drug-paired chamber, PC vs Test sessions (Adult C57BL/6 mice; naltrexone 1, 5 or 10 mg/kg administered prior to MPH 7.5 mg/kg): significant difference between PC and Test sessions
- CPP score compared to MPH administered alone (Adult C57BL/6 mice; [7]): significantly decreased the CPP score
- dose dependence of the decrease in the CPP score (Adult C57BL/6 mice; [7]): dose-dependent
- place preference (CPP) (Adult C57BL/6 mice): did not induce CPP
- place preference (CPP) (Adult C57BL/6 mice; listed as Naltrexone): did not affect CPP
- MPH-induced CPP / CPP score compared to MPH administered alone (Adult C57BL/6 mice; naltrexone 5 or 10 mg/kg 30 min prior to MPH 7.5 mg/kg): significantly lower; also recorded: blocks MPH-induced conditioned place preference (CPP)
- effect on high dose MPH-induced CPP (rewarding effects) (Adult C57BL/6 mice): can significantly attenuate rewarding effects of MPH
- effect on high dose MPH-induced CPP (rewarding effects) (Adult C57BL/6 mice; listed as Naltrexone): prevents MPH-induced CPP; also recorded: attenuates high dose MPH-induced place preference

SMILES: CCN1CCC[C@H]1CNC(=O)c1c(O)c(Cl)cc(Cl)c1OC [raclopride]
- CPP score compared to the MPH only group (Adult C57BL/6 mice; MPH 7.5 mg/kg + raclopride): did not show significant differences
